Reference: PMC7238241, “Lack of Correlation between In Vitro and In Vivo Studies on the Inhibitory Effects of (‒)-Sophoranone on CYP2C9 Is Attributable to Low Oral Absorption and Extensive Plasma Protein Binding of (‒)-Sophoranone” (Pharmaceutics, 2020)

Assays:
CYP1A2 = target: T1, CYP1A2 (Homo sapiens, UniProt P05177); experiment: Reversible CYP1A2 inhibition, cocktail assay (phenacetin O-deethylase) in human liver microsomes; type: biochemical
T1 construct: tissue Corning Life Sciences; host or cells: pooled human liver microsomes, 150 donors
T1 sequence (P05177 1-516): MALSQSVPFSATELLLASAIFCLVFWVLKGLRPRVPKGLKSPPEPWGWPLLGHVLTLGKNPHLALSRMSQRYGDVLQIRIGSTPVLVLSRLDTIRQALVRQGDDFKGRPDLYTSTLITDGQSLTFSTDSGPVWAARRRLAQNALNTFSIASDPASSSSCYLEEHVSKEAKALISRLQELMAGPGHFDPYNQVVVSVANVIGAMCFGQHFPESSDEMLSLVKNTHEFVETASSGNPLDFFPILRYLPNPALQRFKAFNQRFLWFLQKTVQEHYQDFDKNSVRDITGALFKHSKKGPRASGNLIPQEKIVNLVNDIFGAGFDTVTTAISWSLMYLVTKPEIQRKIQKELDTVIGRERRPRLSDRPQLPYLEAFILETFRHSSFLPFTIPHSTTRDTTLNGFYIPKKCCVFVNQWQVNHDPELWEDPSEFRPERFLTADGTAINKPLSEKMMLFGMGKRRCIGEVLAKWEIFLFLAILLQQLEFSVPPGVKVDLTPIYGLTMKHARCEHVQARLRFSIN
Protocol: (§1) The inhibitory effects of SPN on CYP1A2, CYP2A6, CYP2B6, CYP2C8, CYP2C9, CYP2C19, CYP2D6, CYP2E1, and CYP3A4 were evaluated in pooled human liver microsomes through the use of specific CYP probe substrates (cocktail assay), as previously described with a slight modification. Concentrations of each CYP probe in Table 1 were used close to their reported Km values.
Briefly, a 90-µL incubation mixture, including pooled human liver microsomes (final concentration 0.1 mg/mL), 50 mM phosphate buffer (pH 7.4), each CYP-probe substrate cocktail set, and SPN (0–50 μM), was pre-incubated for 5 min at 37 °C. SPN was dissolved in methanol and spiked into the incubation mixture to a final concentration of 0.5% methanol. […]
(§2) The IC50 values were calculated via nonlinear least-squares regression analysis from logarithmic plots of inhibitor concentration versus percentage of activity remaining after inhibition, using SigmaPlot (ver. 14.0; Systat Software Inc, Chicago, IL, USA). The Ki values were determined from the equations for a single substrate single inhibitor model and the software available in the SigmaPlot Enzyme Kinetics module. Competitive, non-competitive, uncompetitive, or mixed inhibition models were evaluated and ranked according to the best fit based on Akaike Information Criterion (AIC) values. […]

CYP2A6 = target: T2, CYP2A6 (Homo sapiens, UniProt P11509); experiment: Reversible CYP2A6 inhibition, cocktail assay (coumarin 7-hydroxylase) in human liver microsomes; type: biochemical
T2 construct: tissue Corning Life Sciences; host or cells: pooled human liver microsomes, 150 donors
T2 sequence (P11509 1-494): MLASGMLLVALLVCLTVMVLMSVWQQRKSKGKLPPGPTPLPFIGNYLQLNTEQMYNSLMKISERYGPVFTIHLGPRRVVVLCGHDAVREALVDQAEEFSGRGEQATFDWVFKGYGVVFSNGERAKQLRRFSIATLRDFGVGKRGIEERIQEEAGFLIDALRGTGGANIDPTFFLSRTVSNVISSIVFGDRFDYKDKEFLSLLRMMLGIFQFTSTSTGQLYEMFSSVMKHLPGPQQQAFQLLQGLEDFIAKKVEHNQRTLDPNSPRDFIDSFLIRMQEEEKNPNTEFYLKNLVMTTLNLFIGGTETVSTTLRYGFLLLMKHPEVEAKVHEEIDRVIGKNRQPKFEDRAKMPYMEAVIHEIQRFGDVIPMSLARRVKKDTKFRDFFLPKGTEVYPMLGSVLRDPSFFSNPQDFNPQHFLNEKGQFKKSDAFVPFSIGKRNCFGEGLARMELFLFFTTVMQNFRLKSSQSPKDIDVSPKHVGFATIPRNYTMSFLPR
Protocol: as §1
Briefly, a 90-µL incubation mixture, including pooled human liver microsomes (final concentration 0.1 mg/mL), 50 mM phosphate buffer (pH 7.4), each CYP-probe substrate cocktail set, and SPN (0–50 μM), was pre-incubated for 5 min at 37 °C. SPN was dissolved in methanol and spiked into the incubation mixture to a final concentration of 0.5% methanol. All P450-selective substrates (except coumarin due to solubility) were dissolved in methanol and serially diluted with methanol to the required concentrations, and the organic solvent was subsequently evaporated under a gentle stream of N2 gas to minimize the effects of organic solvents on CYP activities. On the other hand, coumarin dissolved in 50 mM phosphate buffer (pH 7.4) was directly added into the mixed tube. The reaction was initiated by adding 10-µL aliquot of NADPH-generating system (1.3 mM NADP^+, 3.3 mM glucose 6-phosphate, 3.3 mM MgCl2, and 0.4 unit/mL glucose-6-phosphate dehydrogenase) before 15 min incubation at 37 °C in a shaking water bath. […]
as §2

[1] = at the highest tested concentration (50 μM)

In the case of `CC(C)=CCc1cc([C@@H]2CC(=O)c3ccc(O)c(CC=C(C)C)c3O2)cc(CC=C(C)C)c1O` [SPN, (‒)-Sophoranone], the “residual enzyme activity, CYP1A2” value (CYP1A2; [1]) is reported as “greater than 80%”, the IC50 (CYP1A2; human liver microsomes 0.1 mg/mL, cocktail assay, phenacetin probe, n = 3) is reported as over 50 µM and the “residual enzyme activity, CYP2A6” value (CYP2A6; [1]) is reported as “greater than 80%”. For the same molecule, the IC50 (CYP2A6; human liver microsomes 0.1 mg/mL, cocktail assay, coumarin probe, n = 3, read-out: IC50 Values, CYP2A6) was over 50 µM.
